Patent US5714501A, “Piperidine derivatives” (priority 1995, dated 1998)
Where two headings read alike, the source gives them in different places.

Key:
[1] = molecular target: T1, histamine H1 receptors (Cavia porcellus, UniProt P31389); experiment: Inhibition of [3H]mepyramine binding to guinea-pig cerebellum membranes (and saturation experiment); conditions: 0.5 nM [3H]mepyramine, pH 7.5, 37° C., 30 min
T1 construct: guinea-pig cerebellum membrane proteins; from tissue; host or cells: guinea-pig cerebellum membranes
Method: The method is based on that described previously. […] The reaction was stopped by the addition of 5 ml ice-cold phosphate buffer and followed by immediate filtration through Whatman GF/C filters. The filters were washed twice with about 20 ml cold buffer. The retained radioactivity was determined by a liquid scintillation counter after addition of 5 ml scintillation liquid.
In the saturation experiment, 10^-4 MR(-)dimethindene was used to define the non-specific binding.

[2] = molecular target: T2, leukotriene D4 receptors (Cavia porcellus, UniProt Q2NNR5); experiment: Inhibition of [3H]LTD4 binding to guinea-pig lung membranes (and saturation experiment); set-up: guinea-pig lung membrane proteins; from tissue; host or cells: guinea-pig lung membranes
T2 sequence (Q2NNR5 1-340): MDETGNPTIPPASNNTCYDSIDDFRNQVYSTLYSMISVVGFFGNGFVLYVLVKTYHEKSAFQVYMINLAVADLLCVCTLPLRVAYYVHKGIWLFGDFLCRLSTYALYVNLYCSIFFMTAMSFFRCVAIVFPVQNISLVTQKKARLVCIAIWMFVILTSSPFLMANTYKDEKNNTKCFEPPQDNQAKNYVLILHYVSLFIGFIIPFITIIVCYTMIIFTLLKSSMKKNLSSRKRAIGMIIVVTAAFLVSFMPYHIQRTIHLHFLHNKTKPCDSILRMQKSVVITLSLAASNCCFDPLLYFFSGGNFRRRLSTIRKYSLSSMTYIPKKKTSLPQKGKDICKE
Method: The method is a modification of that described in the literature*. […] The piperazine-N,N'-bis(2-ethanesulfonic)acid buffer contains 10 mM CaCl2, 10 mM MgCl2, 50 mM NaCl, 2 mM cysteine and 2 mM glycine. The reaction was terminated by the addition of 5 ml ice-cold tris-HCl/NaClbuffer (10 mM/, pH 7.5). The mixture was immediately filtered under vacuum (Whatman GF/C filters) and the filters was washed once with 20 ml ice-cold buffer. The retained radioactivity was determined by a liquid scintillation counter.
In the saturation experiment, 2 μM LTD4 was used to define the non-specific binding.

[3] = molecular target: T1, histamine H1 receptors; experiment: Inhibition of histamine-induced contraction of isolated guinea-pig ileum; conditions: 30 min incubation with compound, 37° C.; for Kb: read-out: activity on histamine H1 receptors, pA2 (functional) (converted)
Method: (§1) (1) Inhibition of histamine-or LTD4 -induced contraction
(§2) The first three dose-response experiments are performed by adding histamine or leukotriene D4 cumulatively to the organ bath. After adequate washing, the ileal strip is incubated with the testing compound for 30 min. The dose-response experiment is then conducted again. The dissociation constant (Kb) of the receptor-antagonist complex is used as the parameter to indicate the potency of the testing compound and is calculated according to the Cheng-Prusoff equation.

[4] = molecular target: T2, leukotriene D4 receptors; experiment: Inhibition of LTD4-induced contraction of isolated guinea-pig ileum; set-up: A piece of ileum (about 2 cm length) isolated from guinea-pigs; from tissue; host or cells: guinea-pig ileum
Method: as §1, §2

[5] = guinea-pig ileum, LTD4-induced contraction, 30 min incubation with compound, 37° C., read-out: activity on leukotriene D4 receptors, pA2 (functional) (converted)
[6] = 0.2 nM [3H]-LTD4, guinea-pig lung membranes, pH 7.5, 22° C., 30 min

T1 sequence (P31389 whole entry): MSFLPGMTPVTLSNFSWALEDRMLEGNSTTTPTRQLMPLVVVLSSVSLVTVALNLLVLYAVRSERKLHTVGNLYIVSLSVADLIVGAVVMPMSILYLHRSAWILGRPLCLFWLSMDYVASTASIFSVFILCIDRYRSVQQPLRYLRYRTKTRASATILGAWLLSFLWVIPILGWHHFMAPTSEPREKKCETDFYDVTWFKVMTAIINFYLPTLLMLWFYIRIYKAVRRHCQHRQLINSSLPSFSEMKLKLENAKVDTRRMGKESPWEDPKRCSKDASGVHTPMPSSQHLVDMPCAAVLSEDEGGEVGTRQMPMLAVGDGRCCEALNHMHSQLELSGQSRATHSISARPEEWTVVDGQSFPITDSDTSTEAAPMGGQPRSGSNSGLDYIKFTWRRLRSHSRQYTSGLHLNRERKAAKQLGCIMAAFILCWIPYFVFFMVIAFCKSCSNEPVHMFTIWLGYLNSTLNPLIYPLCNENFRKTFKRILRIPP

SMILES: O=C(N[C@@H](CN1CCC(=C2c3ccccc3C=Cc3ccccc32)CC1)C(=O)O)OCc1ccccc1 [Example 6, (S)-2-Benzyloxycarbonylamino-3-[4-(5H-dibenzo[a,d]cyclohepten-5-ylidene)piperidin-1-yl]propionic acid]
- Kd [1]: 147 nM
- inhibition at 10 µM ([2]; drug at the concentration of 10^-5 M, guinea-pig receptor preparations): 28%
- Kb [3]: 42.7 nM

SMILES: O=C(N[C@@H](CN1CCC(=C2c3ccccc3CCc3ccccc32)CC1)C(=O)O)OCc1ccccc1 [Example 7, (S)-2-Benzyloxycarbonylamino-3-[4-(10,11-dihydro-5H-dibenzo[a,d]cyclohepten-5-ylidene)-piperidin-l-yl]propionic acid]
- Kb [4, 5]: 1120 nM
- Kd [1]: 871 nM
- Kd [2, 6]: 6800 nM
- Kb [3]: 33.1 nM

SMILES: O=C(N[C@H](CN1CCC(=C2c3ccccc3CCc3ccccc32)CC1)C(=O)O)OCc1ccccc1 [Example 8, (R)-2-Benzyloxycarbonylamino-3-[4-(10,11-dihydro-5H-dibenzo[a,d]-cyclohepten-5-ylidene)piperidin-1-yl]propionic acid]
- Kb [4, 5]: 141 nM
- Kd [1]: 412 nM
- Kd [2, 6]: 1550 nM
- Kb [3]: 10 nM

SMILES: CCCc1c(OCC(O)COc2ccc3c(=O)cc(C(=O)O)oc3c2CCC)ccc(C(C)=O)c1O (stereo not shown) [FPL55712, reference compound]
- Kb [4]: 120 nM
- activity on histamine H1 receptors, KD (binding) [1]: not active
- activity on histamine H1 receptors, pA2 (functional) [3]: not active

SMILES: CC(C)(C)c1ccc(C(O)CCCN2CCC(C(O)(c3ccccc3)c3ccccc3)CC2)cc1 (stereo not shown) [terfenadine, reference compound]
- activity on leukotriene D4 receptors, pA2 (functional) ([4]; guinea-pig ileum, LTD4-induced contraction, 30 min incubation with compound, 37° C.): not active
- activity on leukotriene D4 receptors, KD (binding) [2, 6]: not active
